Experimental data taken from ChEMBL document CHEMBL1773045, “Conjugate (MTC-220) of muramyl dipeptide analogue and paclitaxel prevents both tumor growth and metastasis in mice” (J Med Chem, 2011).
The source made the active and inactive calls. The calls are words filed in the database; no cut-off is given here.

Experiments:
Mus musculus [1] = assay: Toxicity in mouse 4T1 cells xenografted […] mouse assessed as decrease in body weight at 3 mg/kg, ip qd for 28 days; assay type: organism-based; set-up: dose 3 mg/kg, route intraperitoneal; conditions: in vivo, 672 h
[2] = tested on: Lewis lung carcinoma cell line; assay: Antimetastatic activity against mouse LLC cells xenografted in C57BL/6 mouse assessed as inhibition of lung metastasis at 6 mg/kg, ip qd for 15 days relative to control; assay type: functional, organism-based; set-up: dose 6 mg/kg
Mus musculus [3] = assay: Antimetastatic activity against mouse 4T1 cells xenografted in BALB/c mouse assessed as reduction of myeloid derived suppressor cells accumulation in spleen at 3 mg/kg, ip qd for 23 days by flow cytometry analysis relative to control; assay type: functional; set-up: scale not given: the % may be the effect or the level left; conditions: route intraperitoneal
4T1 [4] = assay: Antimetastatic activity against mouse 4T1 cells xenografted in […] mouse assessed as inhibition of lung metastasis at 3 mg/kg, ip qd for 28 days; assay type: functional, organism-based; set-up: dose 3 mg/kg
[5] = tested on: Lewis lung carcinoma cell line; assay: Antitumor activity against mouse LLC cells xenografted in C57BL/6 mouse assessed as tumor growth inhibition at 6 mg/kg, ip qd for 15 days relative to control; assay type: functional; conditions: 360 h, route intraperitoneal, read-out: GI
4T1 [6] = assay: Antitumor activity against mouse 4T1 cells xenografted in […] mouse assessed as tumor growth inhibition at 3 mg/kg, ip qd for 28 days relative to control; assay type: functional; conditions: 4T1, ip, 672 h, route intraperitoneal, read-out: GI
Mus musculus [7] = assay: Antimetastatic activity against mouse 4T1 cells xenografted in BALB/c mouse assessed as reduction of myeloid derived suppressor cells accumulation in bone marrow at 3 mg/kg, ip qd for 23 days by flow cytometry analysis relative to control; assay type: functional; set-up: scale not given: the % may be the effect or the level left; conditions: route intraperitoneal
Mus musculus [8] = assay: Toxicity in mouse LLC cells xenografted C57BL/6 mouse assessed as decrease in body weight at 6 mg/kg, ip qd for 15 days; assay type: organism-based; set-up: dose 6 mg/kg, route intraperitoneal; conditions: in vivo, 360 h

For `CC(=O)O[C@H]1C(=O)[C@@]2(C)[C@H]([C@H](OC(=O)c3ccccc3)[C@]3(O)C[C@H](OC(=O)[C@H](O)[C@@H](NC(=O)c4ccccc4)c4ccccc4)C(C)=C1C3(C)C)[C@]1(OC(C)=O)CO[C@@H]1C[C@@H]2O` [PACLITAXEL], the Activity (Mus musculus [1]) was “Non-toxic”, the “growth inhibition (GI)” value [2] was “inactive” and the Activity (Mus musculus [3]) was 46.7%. The “growth inhibition (GI)” value (4T1 [4]) was “inactive”, the inhibition in vivo at 6 mg/kg [5] was 26.2% and the inhibition in vivo at 3 mg/kg (4T1 [6]) was 30.5%. The Activity (Mus musculus [7]) was 79.1% and the Activity (Mus musculus [8]) was “Non-toxic”.
